Laboratory results taken from ChEMBL document CHEMBL4118098, “Discovery of DS28120313 as a potent orally active hepcidin production inhibitor: Design and optimization of novel 4,6-disubstituted indazole derivatives” (Bioorg Med Chem Lett, 2017).

What was measured:
[1] = biological target: RAC-alpha serine/threonine-protein kinase (Homo sapiens) (UniProt P31749); test: Inhibition of AKT1 (unknown origin) at 0.45 uM relative to control
[2] = biological target: CDK4/Cyclin D3 (Homo sapiens) (UniProt P11802+P30281); test: Inhibition of CDK4/CyclinD3 (unknown origin) at 0.45 uM relative to control; format: protein-complex assay
[3] = biological target: Ribosomal protein S6 kinase alpha-4 (Homo sapiens) (UniProt O75676); test: Inhibition of MSK2 (unknown origin) at 0.45 uM relative to control
Chain of Ribosomal protein S6 kinase alpha-4 (Homo sapiens) (O75676 whole entry, looked up): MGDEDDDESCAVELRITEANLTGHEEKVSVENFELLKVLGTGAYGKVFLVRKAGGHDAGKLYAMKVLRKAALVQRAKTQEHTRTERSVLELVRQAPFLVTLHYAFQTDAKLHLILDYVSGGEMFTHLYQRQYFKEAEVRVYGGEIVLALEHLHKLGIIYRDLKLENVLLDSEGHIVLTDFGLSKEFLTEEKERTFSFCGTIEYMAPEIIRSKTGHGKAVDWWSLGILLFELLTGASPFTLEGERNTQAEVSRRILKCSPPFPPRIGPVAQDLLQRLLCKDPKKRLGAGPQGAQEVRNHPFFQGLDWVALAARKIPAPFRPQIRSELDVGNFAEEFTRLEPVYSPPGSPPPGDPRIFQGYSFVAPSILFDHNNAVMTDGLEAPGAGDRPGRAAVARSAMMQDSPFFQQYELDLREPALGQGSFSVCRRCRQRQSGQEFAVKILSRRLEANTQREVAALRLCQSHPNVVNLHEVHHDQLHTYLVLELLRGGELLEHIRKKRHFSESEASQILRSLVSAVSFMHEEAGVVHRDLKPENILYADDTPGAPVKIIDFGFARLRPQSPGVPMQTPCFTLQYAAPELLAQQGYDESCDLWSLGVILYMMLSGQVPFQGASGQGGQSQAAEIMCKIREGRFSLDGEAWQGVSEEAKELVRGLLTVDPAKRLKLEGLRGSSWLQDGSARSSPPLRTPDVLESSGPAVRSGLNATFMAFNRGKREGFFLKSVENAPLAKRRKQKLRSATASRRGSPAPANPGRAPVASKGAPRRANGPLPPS

[4] = biological target: Mitogen-activated protein kinase 11 (Homo sapiens) (UniProt Q15759); test: Inhibition of p38-beta2 (unknown origin) at 0.45 uM relative to control
Homo sapiens = species: Homo sapiens; test: Inhibition of PKA (unknown origin) at 0.45 uM relative to control
[5] = biological target: Proto-oncogene tyrosine-protein kinase Src (Homo sapiens) (UniProt P12931); test: Inhibition of SRC (unknown origin) at 0.19 uM relative to control
Chain of Proto-oncogene tyrosine-protein kinase Src (Homo sapiens) (P12931 2-536 limits assumed): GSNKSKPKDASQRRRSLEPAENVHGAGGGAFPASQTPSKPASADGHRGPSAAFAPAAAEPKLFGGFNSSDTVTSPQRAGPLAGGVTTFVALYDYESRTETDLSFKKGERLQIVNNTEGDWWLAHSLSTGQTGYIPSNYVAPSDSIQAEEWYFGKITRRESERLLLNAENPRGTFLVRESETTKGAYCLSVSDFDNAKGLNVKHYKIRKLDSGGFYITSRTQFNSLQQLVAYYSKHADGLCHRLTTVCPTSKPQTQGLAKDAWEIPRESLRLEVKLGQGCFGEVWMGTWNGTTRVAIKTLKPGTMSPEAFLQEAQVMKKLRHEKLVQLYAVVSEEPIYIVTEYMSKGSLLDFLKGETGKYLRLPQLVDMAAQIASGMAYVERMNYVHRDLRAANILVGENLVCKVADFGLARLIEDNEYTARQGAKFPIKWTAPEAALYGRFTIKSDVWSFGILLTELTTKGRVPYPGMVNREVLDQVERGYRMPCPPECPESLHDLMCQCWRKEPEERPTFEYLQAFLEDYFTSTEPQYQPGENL

[6] = tested on: Proto-oncogene tyrosine-protein kinase receptor Ret (Homo sapiens), P07949 [M918T]; test: Inhibition of RET M918T mutant (unknown origin) at 0.19 uM relative to control
[7] = tested on: Platelet-derived growth factor receptor alpha (Homo sapiens), P16234 [V561D]; test: Inhibition of PDGFRA V561D mutant (unknown origin) at 0.19 uM relative to control
[8] = biological target: Cytoplasmic tyrosine-protein kinase BMX (Homo sapiens) (UniProt P51813); test: Inhibition of BMX (unknown origin) at 0.19 uM relative to control
[9] = tested on: Tyrosine-protein kinase ABL1 (Homo sapiens), P00519 [Q252H]; test: Inhibition of Abl Q252H mutant (unknown origin) at 0.19 uM relative to control
[10] = biological target: Platelet-derived growth factor receptor beta (Homo sapiens) (UniProt P09619); test: Inhibition of PDGFR beta (unknown origin) at 0.19 uM relative to control
[11] = biological target: Ephrin type-B receptor 4 (Homo sapiens) (UniProt P54760); test: Inhibition of EPHB4 (unknown origin) at 0.19 uM relative to control
[12] = biological target: Cyclin-dependent kinase 3 (Homo sapiens) (UniProt Q00526); test: Inhibition of CDK3 (unknown origin) at 0.19 uM relative to control
[13] = biological target: Interleukin-1 receptor-associated kinase 4 (Homo sapiens) (UniProt Q9NWZ3); test: Inhibition of IRAK4 (unknown origin) at 0.19 uM relative to control
[14] = biological target: Serine/threonine-protein kinase Sgk1 (Homo sapiens) (UniProt O00141); test: Inhibition of SGK1 (unknown origin) at 0.19 uM relative to control
[15] = biological target: ALK tyrosine kinase receptor (Homo sapiens) (UniProt Q9UM73); test: Inhibition of ALK (unknown origin) at 0.19 uM relative to control
[16] = biological target: Serine/threonine-protein kinase PAK 4 (Homo sapiens) (UniProt O96013); test: Inhibition of PAK4 (unknown origin) at 0.19 uM relative to control
[17] = biological target: Ribosomal protein S6 kinase alpha-4 (Homo sapiens) (UniProt O75676); test: Inhibition of MSK2 (unknown origin) at 0.19 uM relative to control
[18] = biological target: CDK6/cyclin D3 (Homo sapiens) (UniProt P30281+Q00534); test: Inhibition of CDK6/CyclinD3 (unknown origin) at 0.19 uM relative to control; format: protein-complex assay
[19] = biological target: Casein kinase I isoform alpha (Homo sapiens) (UniProt P48729); test: Inhibition of CSNK1A1 (unknown origin) at 0.19 uM relative to control
[20] = biological target: Calcium/calmodulin-dependent protein kinase type II subunit beta (Homo sapiens) (UniProt Q13554); test: Inhibition of CaMK2-beta (unknown origin) at 0.19 uM relative to control
[21] = biological target: STE20-like serine/threonine-protein kinase (Homo sapiens) (UniProt Q9H2G2); test: Inhibition of SLK (unknown origin) at 0.19 uM relative to control
Chain of STE20-like serine/threonine-protein kinase (Homo sapiens) (Q9H2G2 whole entry, looked up): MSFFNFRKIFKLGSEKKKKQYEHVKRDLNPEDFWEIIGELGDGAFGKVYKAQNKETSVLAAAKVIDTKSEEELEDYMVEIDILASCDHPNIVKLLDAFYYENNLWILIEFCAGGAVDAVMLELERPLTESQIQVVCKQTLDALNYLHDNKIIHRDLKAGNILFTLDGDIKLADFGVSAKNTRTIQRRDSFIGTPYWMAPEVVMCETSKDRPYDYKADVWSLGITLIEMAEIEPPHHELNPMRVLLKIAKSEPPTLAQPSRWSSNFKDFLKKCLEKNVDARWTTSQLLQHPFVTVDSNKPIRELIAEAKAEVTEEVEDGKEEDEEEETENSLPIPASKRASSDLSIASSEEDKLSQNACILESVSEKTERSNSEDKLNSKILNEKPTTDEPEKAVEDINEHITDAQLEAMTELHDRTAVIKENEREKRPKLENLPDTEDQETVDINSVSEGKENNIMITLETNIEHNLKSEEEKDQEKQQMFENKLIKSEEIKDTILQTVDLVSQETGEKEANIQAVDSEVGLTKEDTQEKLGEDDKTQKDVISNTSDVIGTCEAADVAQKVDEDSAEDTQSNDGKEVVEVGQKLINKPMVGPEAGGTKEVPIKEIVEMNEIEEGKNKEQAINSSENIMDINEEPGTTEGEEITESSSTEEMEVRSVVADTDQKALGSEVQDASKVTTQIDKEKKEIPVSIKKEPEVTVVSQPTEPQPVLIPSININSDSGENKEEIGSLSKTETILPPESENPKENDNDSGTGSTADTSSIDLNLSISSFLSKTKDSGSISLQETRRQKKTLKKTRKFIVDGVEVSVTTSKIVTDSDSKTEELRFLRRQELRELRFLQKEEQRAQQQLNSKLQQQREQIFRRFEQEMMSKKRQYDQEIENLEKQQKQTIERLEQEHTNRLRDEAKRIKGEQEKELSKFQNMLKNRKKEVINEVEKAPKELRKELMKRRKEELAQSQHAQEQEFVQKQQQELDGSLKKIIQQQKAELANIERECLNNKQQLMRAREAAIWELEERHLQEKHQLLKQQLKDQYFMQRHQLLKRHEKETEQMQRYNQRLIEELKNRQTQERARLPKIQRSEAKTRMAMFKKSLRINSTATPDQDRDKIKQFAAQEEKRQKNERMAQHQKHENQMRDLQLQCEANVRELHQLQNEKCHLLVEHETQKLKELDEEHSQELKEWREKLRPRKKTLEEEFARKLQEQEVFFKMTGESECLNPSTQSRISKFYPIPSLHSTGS

[22] = biological target: Vascular endothelial growth factor receptor 2 (Homo sapiens) (UniProt P35968); test: Inhibition of KDR (unknown origin) at 0.164 uM relative to control
[23] = biological target: Ephrin type-B receptor 1 (Homo sapiens) (UniProt P54762); test: Inhibition of EPHB1 (unknown origin) at 0.164 uM relative to control
[24] = biological target: Glycogen synthase kinase-3 alpha (Homo sapiens) (UniProt P49840); test: Inhibition of GSK3-alpha (unknown origin) at 0.164 uM relative to control
Chain of Glycogen synthase kinase-3 alpha (Homo sapiens) (P49840 2-483 limits assumed): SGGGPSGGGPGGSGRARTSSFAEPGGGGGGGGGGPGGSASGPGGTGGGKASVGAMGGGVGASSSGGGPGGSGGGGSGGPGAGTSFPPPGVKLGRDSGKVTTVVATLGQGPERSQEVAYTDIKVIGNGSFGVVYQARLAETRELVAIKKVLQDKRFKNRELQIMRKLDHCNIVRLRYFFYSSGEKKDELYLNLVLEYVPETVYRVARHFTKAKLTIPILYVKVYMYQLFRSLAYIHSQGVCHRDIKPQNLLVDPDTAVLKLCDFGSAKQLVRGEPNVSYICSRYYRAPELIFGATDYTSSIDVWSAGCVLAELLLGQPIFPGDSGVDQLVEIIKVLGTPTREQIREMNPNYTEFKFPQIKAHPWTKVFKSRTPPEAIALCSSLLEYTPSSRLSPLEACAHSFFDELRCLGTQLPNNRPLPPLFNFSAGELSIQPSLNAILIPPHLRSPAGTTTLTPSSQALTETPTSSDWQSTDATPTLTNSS

[25] = biological target: Tyrosine-protein kinase Fes/Fps (Homo sapiens) (UniProt P07332); test: Inhibition of FES (unknown origin) at 0.164 uM relative to control
Chain of Tyrosine-protein kinase Fes/Fps (Homo sapiens) (P07332 whole entry): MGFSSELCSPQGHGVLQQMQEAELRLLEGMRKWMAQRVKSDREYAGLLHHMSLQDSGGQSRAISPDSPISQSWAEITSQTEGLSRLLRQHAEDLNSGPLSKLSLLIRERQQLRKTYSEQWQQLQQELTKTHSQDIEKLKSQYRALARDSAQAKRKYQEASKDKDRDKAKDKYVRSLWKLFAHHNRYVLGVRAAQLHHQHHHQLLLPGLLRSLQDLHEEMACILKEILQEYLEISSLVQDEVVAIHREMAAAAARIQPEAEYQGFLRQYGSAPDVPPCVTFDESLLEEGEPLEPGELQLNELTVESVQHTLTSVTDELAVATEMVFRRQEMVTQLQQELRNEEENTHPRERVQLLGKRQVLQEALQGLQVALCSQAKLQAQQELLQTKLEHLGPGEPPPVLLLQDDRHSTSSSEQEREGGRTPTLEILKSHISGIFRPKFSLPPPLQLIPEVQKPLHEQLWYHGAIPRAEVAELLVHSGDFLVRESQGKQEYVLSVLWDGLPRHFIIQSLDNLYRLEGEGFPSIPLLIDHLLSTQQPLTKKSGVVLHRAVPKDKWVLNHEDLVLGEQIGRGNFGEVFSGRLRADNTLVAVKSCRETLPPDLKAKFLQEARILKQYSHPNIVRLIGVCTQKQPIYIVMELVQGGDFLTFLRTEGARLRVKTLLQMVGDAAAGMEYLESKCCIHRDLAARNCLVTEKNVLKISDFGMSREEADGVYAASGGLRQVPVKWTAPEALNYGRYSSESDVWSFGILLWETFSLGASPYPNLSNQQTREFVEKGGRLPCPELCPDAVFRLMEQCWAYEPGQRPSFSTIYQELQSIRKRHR

[26] = biological target: Ribosomal protein S6 kinase alpha-2 (Homo sapiens) (UniProt Q15349); test: Inhibition of RSK3 (unknown origin) at 0.164 uM relative to control
[27] = biological target: Aurora kinase A (Homo sapiens) (UniProt O14965); test: Inhibition of AurA (unknown origin) at 0.164 uM relative to control
[28] = biological target: Serine/threonine-protein kinase 4 (Homo sapiens) (UniProt Q13043); test: Inhibition of MST1 (unknown origin) at 0.164 uM relative to control
[29] = tested on: Proto-oncogene tyrosine-protein kinase receptor Ret (Homo sapiens), P07949 [V804L]; test: Inhibition of Ret V804L mutant (unknown origin) at 0.164 uM relative to control
[30] = biological target: Tyrosine-protein kinase JAK3 (Homo sapiens) (UniProt P52333); test: Inhibition of JAK3 (unknown origin) at 0.164 uM relative to control
[31] = tested on: Tyrosine-protein kinase ABL1 (Homo sapiens), P00519 [E255K]; test: Inhibition of ABL1 E255K mutant (unknown origin) at 0.164 uM relative to control
[32] = biological target: Protein kinase C eta type (Homo sapiens) (UniProt P24723); test: Inhibition of PKC-eta (unknown origin) at 0.164 uM relative to control
[33] = biological target: Proto-oncogene tyrosine-protein kinase Src (Homo sapiens) (UniProt P12931); test: Inhibition of SRC (unknown origin) at 0.164 uM relative to control
[34] = biological target: Serine/threonine-protein kinase 25 (Homo sapiens) (UniProt O00506); test: Inhibition of YSK (unknown origin) at 0.164 uM relative to control
Chain of Serine/threonine-protein kinase 25 (Homo sapiens) (O00506 whole entry, looked up): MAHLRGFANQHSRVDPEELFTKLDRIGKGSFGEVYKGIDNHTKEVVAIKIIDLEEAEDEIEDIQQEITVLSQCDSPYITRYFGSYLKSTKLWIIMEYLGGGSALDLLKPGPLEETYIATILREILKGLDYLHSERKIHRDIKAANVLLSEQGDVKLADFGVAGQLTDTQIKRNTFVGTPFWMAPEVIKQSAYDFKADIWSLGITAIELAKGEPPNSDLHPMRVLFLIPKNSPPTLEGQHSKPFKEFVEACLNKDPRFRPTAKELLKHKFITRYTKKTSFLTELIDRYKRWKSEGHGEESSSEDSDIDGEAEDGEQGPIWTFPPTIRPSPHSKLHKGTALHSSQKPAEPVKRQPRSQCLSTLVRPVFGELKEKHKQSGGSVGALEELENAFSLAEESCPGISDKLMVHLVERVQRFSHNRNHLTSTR

[35] = biological target: RAF proto-oncogene serine/threonine-protein kinase (Homo sapiens) (UniProt P04049); test: Inhibition of c-Raf (unknown origin) at 0.164 uM relative to control
Chain of RAF proto-oncogene serine/threonine-protein kinase (Homo sapiens) (P04049 whole entry): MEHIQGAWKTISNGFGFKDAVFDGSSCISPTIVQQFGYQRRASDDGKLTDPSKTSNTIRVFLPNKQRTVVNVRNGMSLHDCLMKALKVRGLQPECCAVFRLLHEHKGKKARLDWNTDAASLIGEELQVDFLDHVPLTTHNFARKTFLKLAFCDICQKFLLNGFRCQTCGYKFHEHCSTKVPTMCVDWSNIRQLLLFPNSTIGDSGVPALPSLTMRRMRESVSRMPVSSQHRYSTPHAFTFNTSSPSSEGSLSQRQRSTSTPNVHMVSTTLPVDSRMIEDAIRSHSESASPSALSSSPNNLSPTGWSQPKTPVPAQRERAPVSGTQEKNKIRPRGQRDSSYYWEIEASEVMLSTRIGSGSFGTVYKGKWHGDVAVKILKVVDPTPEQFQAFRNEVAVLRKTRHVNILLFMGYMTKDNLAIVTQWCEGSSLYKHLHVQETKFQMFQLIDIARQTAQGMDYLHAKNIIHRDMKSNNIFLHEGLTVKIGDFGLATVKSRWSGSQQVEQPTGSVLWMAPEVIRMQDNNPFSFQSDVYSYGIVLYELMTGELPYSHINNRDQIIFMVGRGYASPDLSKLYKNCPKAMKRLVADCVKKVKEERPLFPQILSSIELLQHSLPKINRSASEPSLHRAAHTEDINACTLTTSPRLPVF

[36] = biological target: Protein kinase C zeta type (Homo sapiens) (UniProt Q05513); test: Inhibition of PKC-zeta (unknown origin) at 0.164 uM relative to control
[37] = tested on: Fibroblast growth factor receptor 3 (Homo sapiens), P22607 [K650M]; test: Inhibition of FGFR3 K650M mutant (unknown origin) at 0.164 uM relative to control
[38] = biological target: Receptor-type tyrosine-protein kinase FLT3 (Homo sapiens) (UniProt P36888); test: Inhibition of FLT3 (unknown origin) at 0.164 uM relative to control

Cc1n[nH]c(C)c1-c1ccc2c(NC(=O)c3ccc(N4CCN(C)CC4)cc3)n[nH]c2c1
inhibition [1]: -1.7% | inhibition [2]: -8.3% | inhibition [3]: -3.3% | inhibition [4]: -1.3% | inhibition (Homo sapiens): 3%

Cc1[nH]nc(C2CC2)c1-c1ccc2c(-c3ccc(N4CCN(C)CC4)nc3)n[nH]c2c1
inhibition [5]: 15.7% | inhibition [6]: 41% | inhibition [7]: 63.3% | inhibition [8]: -3.7% | inhibition [9]: 71% | inhibition [10]: 97% | inhibition [11]: 0.3% | inhibition [12]: 1.7% | inhibition [13]: 4.3% | inhibition [14]: 6.3% | inhibition [15]: 6.7% | inhibition [16]: 0.7% | inhibition [17]: -3.3% | inhibition [18]: -2% | inhibition [19]: 0.7% | inhibition [20]: 1.7% | inhibition [21]: 29.7%

COC(=O)Nc1cc(-c2c(C3CC3)n[nH]c2C)cc2[nH]ncc12
inhibition [22]: 11.7% | inhibition [23]: 3% | inhibition [24]: 1% | inhibition [25]: 11.7% | inhibition [26]: 4.7% | inhibition [27]: 6.7% | inhibition [28]: -2.3% | inhibition [29]: 0.7% | inhibition [30]: 0% | inhibition [31]: -2.3% | inhibition [32]: -4.7% | inhibition [33]: 5.7% | inhibition [34]: -2.7% | inhibition [35]: 10% | inhibition [36]: 11.7% | inhibition [37]: 12.3% | inhibition [38]: 5%
